Where a name gives a salt, the structure may show the parent alone.
Tests used:
Food-Deprived Rats = test: Rodent feeding model: measurement of food intake in food-deprived rats; assay type: in vivo, Male Long-Evans rats; settings: 30 mg/kg i.p.
Source text: Measurement of Food Intake in Food-Deprived Rats
Male Long-Evans rats (180-200 grams) are housed individually and are maintained on once-a-day feeding schedule (i.e., 10 a.m. until 4 p.m.) for five days following quarantine to allow the animals to acclimate to feeding on powdered chow (#5002 PMI Certified Rodent Meal) during the allotted time. The chow is made available in a open jar, anchored in the cage by a wire, with a metal follower covering the food to minimize spillage. Water is available ad-libitum.
Animals are fasted for 18 hours prior to testing. At the end of the fasting period, animal are administered either compounds of the invention or vehicle. Vehicle and test compounds are administered either orally (5 mL/kg) 60 minutes prior to the experiment, or 30 minutes prior when given subcutaneously (1 mL/kg) or intraperitoneally (1 mL/kg). Compounds of the invention are administered orally as a suspension in aqueous 0.5% methylcellulose-0.4% Tween 80, or intraperitoneally as a solution or suspension in PEG 200; compound concentrations typically range from 1 mg/kg to 100 mg/kg, preferably from 10-30 mg/kg. Food intake is measured at 2, 4, and 6 hours after administration by weighing the special jar containing the food before the experiment and at the specified times. Upon completion of the experiment, all animals are given a one-week washout period before retesting.
Percent reduction of food consumption is calculated subtracting the grams of food consumed by the treated group from the grams of food consumed by the control group divided by the grams of food consumed by the control group, multiplied by 100. A negative value indicates a reduction in food consumption and a positive value indicates an increase in food consumption. [formula]

[1] = target: T1, human neuropeptide Y5 receptor (Homo sapiens, UniProt Q15761); test: NPY5 HTS centrifugation assay: competition with 125I-PYY for binding to membranes of NPY5-transfected HEK293 cells
T1 construct: expressed in transfected cells; membranes
T1 sequence (Q15761 1-445): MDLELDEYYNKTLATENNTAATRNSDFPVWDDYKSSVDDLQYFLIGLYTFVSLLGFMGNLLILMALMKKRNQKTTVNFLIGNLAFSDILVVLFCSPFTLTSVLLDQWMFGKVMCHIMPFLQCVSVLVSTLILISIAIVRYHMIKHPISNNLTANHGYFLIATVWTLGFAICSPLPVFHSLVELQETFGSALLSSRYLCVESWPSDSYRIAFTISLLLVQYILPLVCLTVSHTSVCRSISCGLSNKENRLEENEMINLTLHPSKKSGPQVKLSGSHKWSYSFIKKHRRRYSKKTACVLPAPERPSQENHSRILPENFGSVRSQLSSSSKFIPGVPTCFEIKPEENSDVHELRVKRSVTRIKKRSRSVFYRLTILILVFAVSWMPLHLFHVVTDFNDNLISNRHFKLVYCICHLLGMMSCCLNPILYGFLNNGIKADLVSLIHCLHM
Experimental: NPY5 HTS Centrifugation Assay
The compounds described in this invention were evaluated for binding to the human neuropeptide Y5 receptor.
The human NPY5 receptor cDNA (Genbank Accession number U66275) was inserted into the vector pClneo (Invitrogen) and transfected into human embryonic kidney cells (HEK-293) via calcium phosphate method (Cullen 1987). Stably transfected cells were selected with G-418 (600 μg/mL). Stably transfected cells served as the source for the membranes for the NPY5 receptor binding assay.
NPY5-transfected HEK293 cells were grown to confluence in 150 cm^2 culture dishes. Cells were washed once with phosphate-buffered saline (Gibco Cat# 14040-133). Cells were then incubated in phosphate-buffered saline without calcium and without magnesium, supplemented with 2 mM EDTA. Cells were incubated for 10 minutes at room temperature and the cells were collected by repetitive pipeting. Cells were formed into pellets and then frozen at −80° C. until needed. Frozen pellets were homogenized with a polytron at full speed for 12 seconds in a homogenization buffer (20 mM Tris HCl, 5 mM EDTA, pH 7.4). Homogenates were centrifuged for 5 minutes at 4° C. at 200 g. Supernatants were transferred to corex tubes and centrifuged for 25 minutes at 28,000 g. Pellets were re-suspended in Binding (20 mM HEPES, 10 mM NaCl, 0.22 mM KH2PO4, 1.3 mM CaCl2, 0.8 mM MgSO4, pH 7.4). Membranes were kept on ice until use.
A competition binding assay, known to those skilled in the art, was used in which compounds of formula A compete with ^125I-PYY for binding to cell membranes. In simple terms, the less ^125I-PYY bound to the membranes implies that a compound is a good inhibitor (competitor). Bound ^125I-PYY is determined by centrifugation of membranes, aspirating supernatant, washing away residual ^125I-PYY and subsequently counting the bound sample in a gcounter.
Compounds to be tested were prepared as 10× stocks in binding buffer and added first to assay tubes (RIA vials, Sarstedt). Twenty (20) μL of each 10× compound stock is pipeted into vials and 80 μL of ^125I-PYY (NEN catalog number NEX240), which has been diluted to a concentration of 200 pM in 0.25% BSA in binding buffer, is added to the compound tubes (final concentration of ^125I-PYY is 80 pM). To each tube is added 100 μL of membranes and the mixture is agitated by pipeting 2 times. Samples are incubated for 1 hr at room temperature. Aluminum cast plates (Sarstedt) containing the vials are then centrifuged 10 minutes at 3200 rpm in a Sorvall RT6000. Supernatant is then aspirated. To each vial 400 μL PBS is added and this is then aspirated again. Vials are then put in carrier polypropylene 12×75 tube and counted in gamma counter (Packard). Non-specific binding is determined in the presence of 300 nM NPY. Percent inhibition of ^125I-PYY binding is calculated by subtracting non-specific binding from the test samples (compound (I)), taking these counts and dividing by total binding, and multiplying by 100. Inhibitory concentration values (IC50) of compounds that show appreciable inhibition of ^125I-PYY binding are calculated by obtaining percent inhibition of ^125I-PYY binding values at different concentrations of the test compound, and using a graphing program such as GraphPad Prism (San Diego, Calif.) to calculate the concentration of test compound that inhibits fifty-percent of ^125I-PYY binding (Table 4).

inhibition at 0.3 µM ([1]; % inhibition of 125I-PYY binding at 300 nM compound, read-out: % Inh @ 300 nM): 74%
inhibition at 3 µM ([1]; % inhibition of 125I-PYY binding at 3 uM compound): 97%
Compound: O=S(=O)(NC[C@H]1CC[C@H](CNC2=N[C@@H]3CCc4cc(O)ccc4[C@@H]3C2)CC1)c1ccccc1 [Compound 10, N-[[trans-4-[[(cis-3a,4,5,9b-ttrahydro-7-hydroxy-1H-benz[e]indol-2-yl)amino]methyl]cyclohexyl]methyl]benzenesulfonamide hydrochloride]
Food Consumption (avg. grams) 0-2 h (Food-Deprived Rats; 0-2 h, 18 h fasted rats): 4.38 g
Food Consumption 0-2 h (% chg.) (Food-Deprived Rats; 0-2 h, change vs vehicle, negative = reduction): (−57%)
Food Consumption (avg. grams) 0-4 h (Food-Deprived Rats; 0-4 h, 18 h fasted rats): 6.43 g
Food Consumption 0-4 h (% chg.) (Food-Deprived Rats; 0-4 h, change vs vehicle, negative = reduction): (−53%)
Food Consumption (avg. grams) 0-6 h (Food-Deprived Rats; 0-6 h, 18 h fasted rats): 10.75 g
Food Consumption 0-6 h (% chg.) (Food-Deprived Rats; 0-6 h, change vs vehicle, negative = reduction): (−49%)
Food Consumption (avg. grams) 2-6 h (Food-Deprived Rats; 2-6 h, 18 h fasted rats): 6.37 g
Food Consumption 2-6 h (% chg.) (Food-Deprived Rats; 2-6 h, change vs vehicle, negative = reduction): (−41%)

Source: patent US6841552B1, “3a,4,5,9b-tetrahydro-1H-benz[e]indol-2-yl amine-derived neuropeptide Y receptors ligands useful in the treatment of obesity and other disorders” (Ortho-McNeil Pharmaceutical, Inc., priority 1999, dated 2005)
